{
  "source": "patent US12459918B2",
  "about": "“Isoquinolinone derivatives serving as rock protein kinase inhibitors and use thereof” (GUANGZHOU OCUSUN OPHTHALMIC BIOTECHNOLOGY CO., LTD., priority 2019, dated 2025)",
  "key": {"[1]": {"tested_on": "New Zealand rabbits with acute ocular hypertension", "experiment": "Intraocular pressure reduction experiment in New Zealand rabbits with acute ocular hypertension, experiment operation 2", "format": "in vivo", "conditions": "for Intraocular pressure in the left eye: 4 mg/mL group, left eye (solvent, not modeled); for Intraocular pressure in the right eye: 4 mg/mL in right eye (induced ocular hypertension)", "description": "Experimental Example 3. Intraocular Pressure Reduction Experiment in New Zealand Rabbits with Acute Ocular Hypertension\nAcute ocular hypertension of rabbits were induced by anterior chamber injection of a viscoelastic agent and the intraocular pressure reduction action of compound 60 and compound 63 at different concentrations were explored by eye-drop administration.\nMale New Zealand rabbits, aged 97-127 days, weighted 2.5-3.4 kg, purchased from PizhouDongfang Breeding Co. Ltd.\n50 male New Zealand rabbits were randomly divided into 5 groups according to body weight, with 10 rabbits/per group Animals in 1-5 groups were injected with medical sodium hyaluronate gel in the anterior chamber of right eye in a single dose, 100 μL/eye, to induce ocular hypertension. In 5-15 minutes after modeling, the right eye was respectively dropped with a solvent, K-115 and test samples (compound 63 at different concentrations), the left eye was dropped with a solvent, the volume of the administration was all 50 μL/eye, and intraocular pressure in both eyes of the animals was measured before administration and in 2, 4, 6, 8 and 10 hours after administration, respectively."}, "[2]": {"tested_on": "New Zealand rabbits with normal intraocular pressure", "experiment": "Reduction of intraocular pressure by repeated eye-drop administration for 14 days, experiment operation 1", "format": "in vivo", "conditions": "for Change of intraocular pressure: negative control minus group", "description": "Experimental example 4. Experiment on reduction of intraocular pressure and ocular toxicity of New Zealand rabbits with normal intraocular pressure by repeated eye-drop administration for 14 days\nThe intraocular pressure reduction action and the potential ocular toxicity of compound 63 were explored by 14 days of repeated eye-drop administration in rabbits with normal intraocular pressure.\nMale New Zealand rabbits, aged 97-127 days, weighted 2.6-3.5 kg, purchased from PizhouDongfang Breeding Co. Ltd.\nThe male New Zealand rabbits were randomly divided into 7 groups, with 6 rabbits per group. Animals were randomly divided according to body weight Animals in 1-7 groups were eye-dropped with solvent/control sample/test sample in both eyes, the volume of the administration was all 50 μL/eye, once per day for 14 consecutive days, and the day of the administration was recorded as Day 1. On Day 1, intraocular pressure of the animals was measured before the administration and in 1, 2, 4, 6, 8 and 10 hours after the administration, respectively; on Days 2-14, intraocular pressure of the animals was measured in 1 hour after daily administration for the group administered with K-115, and intraocular pressure of the animal was measured in 4 hours after daily administration for the other groups."}, "[3]": {"conditions": "4 mg/mL once per day, Day 2, 1 hour after daily administration"}, "[4]": {"conditions": "4 mg/mL once per day, Day 3, 1 hour after daily administration"}, "[5]": {"conditions": "4 mg/mL once per day, Day 4, 1 hour after daily administration"}, "[6]": {"conditions": "4 mg/mL once per day, Day 5, 1 hour after daily administration"}, "[7]": {"conditions": "4 mg/mL once per day, Day 6, 1 hour after daily administration"}, "[8]": {"conditions": "4 mg/mL once per day, Day 7, 1 hour after daily administration"}, "[9]": {"conditions": "4 mg/mL once per day, Day 8, 1 hour after daily administration"}, "[10]": {"conditions": "4 mg/mL once per day, Day 9, 1 hour after daily administration"}, "[11]": {"conditions": "4 mg/mL once per day, Day 10, 1 hour after daily administration"}, "[12]": {"conditions": "4 mg/mL once per day, Day 11, 1 hour after daily administration"}, "[13]": {"conditions": "4 mg/mL once per day, Day 12, 1 hour after daily administration"}, "[14]": {"conditions": "4 mg/mL once per day, Day 13, 1 hour after daily administration"}, "[15]": {"conditions": "4 mg/mL once per day, Day 14, 1 hour after daily administration"}},
  "data": [
    {"molecule": "C[C@H]1CNCCCN1S(=O)(=O)c1cccc2cncc(F)c12", "note": "[Compound K-115, reference compound]", "values": [
      {"measurement": "Intraocular pressure in the left eye", "setting": "[1]; 2 hours after administration", "result": 6.50, "unit": "mmHg"},
      {"measurement": "Intraocular pressure in the left eye", "setting": "[1]; 4 hours after administration", "result": 8.54, "unit": "mmHg"},
      {"measurement": "Intraocular pressure in the left eye", "setting": "[1]; 6 hours after administration", "result": 11.40, "unit": "mmHg"},
      {"measurement": "Intraocular pressure in the left eye", "setting": "[1]; 8 hours after administration", "result": 13.20, "unit": "mmHg"},
      {"measurement": "Intraocular pressure in the left eye", "setting": "[1]; 10 hours after administration", "result": 13.37, "unit": "mmHg"},
      {"measurement": "Intraocular pressure in the left eye", "setting": "[1]; before administration", "result": 11.80, "unit": "mmHg"},
      {"measurement": "Intraocular pressure in the right eye", "setting": "[1]; 2 hours after administration", "result": 8.20, "unit": "mmHg"},
      {"measurement": "Intraocular pressure in the right eye", "setting": "[1]; 4 hours after administration", "result": 11.27, "unit": "mmHg"},
      {"measurement": "Intraocular pressure in the right eye", "setting": "[1]; 6 hours after administration", "result": 15.07, "unit": "mmHg"},
      {"measurement": "Intraocular pressure in the right eye", "setting": "[1]; 8 hours after administration", "result": 15.57, "unit": "mmHg"},
      {"measurement": "Intraocular pressure in the right eye", "setting": "[1]; 10 hours after administration", "result": 16.47, "unit": "mmHg"},
      {"measurement": "Intraocular pressure in the right eye", "setting": "[1]; before administration", "result": 11.77, "unit": "mmHg"},
      {"measurement": "Mean intraocular pressure of both eyes", "setting": "[2]; 4 mg/mL both eyes, Day 1, 1 hour after administration", "result": 7.72, "unit": "mmHg"},
      {"measurement": "Mean intraocular pressure of both eyes", "setting": "[2]; 4 mg/mL both eyes, Day 1, 2 hours after administration", "result": 9.00, "unit": "mmHg"},
      {"measurement": "Mean intraocular pressure of both eyes", "setting": "[2]; 4 mg/mL both eyes, Day 1, 4 hours after administration", "result": 9.67, "unit": "mmHg"},
      {"measurement": "Mean intraocular pressure of both eyes", "setting": "[2]; 4 mg/mL both eyes, Day 1, 6 hours after administration", "result": 10.56, "unit": "mmHg"},
      {"measurement": "Mean intraocular pressure of both eyes", "setting": "[2]; 4 mg/mL both eyes, Day 1, 8 hours after administration", "result": 10.28, "unit": "mmHg"},
      {"measurement": "Mean intraocular pressure of both eyes", "setting": "[2]; 4 mg/mL both eyes, Day 1, 10 hours after administration", "result": 12.81, "unit": "mmHg"},
      {"measurement": "Mean intraocular pressure of both eyes", "setting": "[2]; 4 mg/mL both eyes, Day 1, before administration", "result": 10.83, "unit": "mmHg"},
      {"measurement": "Mean intraocular pressure of both eyes", "setting": "[2]; [3]", "result": 6.83, "unit": "mmHg"},
      {"measurement": "Change of intraocular pressure", "setting": "[2]; [3]", "result": 4.25, "unit": "mmHg"},
      {"measurement": "Mean intraocular pressure of both eyes", "setting": "[2]; [4]", "result": 6.81, "unit": "mmHg"},
      {"measurement": "Change of intraocular pressure", "setting": "[2]; [4]", "result": 3.58, "unit": "mmHg"},
      {"measurement": "Mean intraocular pressure of both eyes", "setting": "[2]; [5]", "result": 6.92, "unit": "mmHg"},
      {"measurement": "Change of intraocular pressure", "setting": "[2]; [5]", "result": 3.69, "unit": "mmHg"},
      {"measurement": "Mean intraocular pressure of both eyes", "setting": "[2]; [6]", "result": 6.67, "unit": "mmHg"},
      {"measurement": "Change of intraocular pressure", "setting": "[2]; [6]", "result": 4.3, "unit": "mmHg"},
      {"measurement": "Mean intraocular pressure of both eyes", "setting": "[2]; [7]", "result": 6.75, "unit": "mmHg"},
      {"measurement": "Change of intraocular pressure", "setting": "[2]; [7]", "result": 2.56, "unit": "mmHg"},
      {"measurement": "Mean intraocular pressure of both eyes", "setting": "[2]; [8]", "result": 7.39, "unit": "mmHg"},
      {"measurement": "Change of intraocular pressure", "setting": "[2]; [8]", "result": 2.67, "unit": "mmHg"},
      {"measurement": "Mean intraocular pressure of both eyes", "setting": "[2]; [9]", "result": 7.53, "unit": "mmHg"},
      {"measurement": "Change of intraocular pressure", "setting": "[2]; [9]", "result": 3.78, "unit": "mmHg"},
      {"measurement": "Mean intraocular pressure of both eyes", "setting": "[2]; [10]", "result": 7.78, "unit": "mmHg"},
      {"measurement": "Change of intraocular pressure", "setting": "[2]; [10]", "result": 1.66, "unit": "mmHg"},
      {"measurement": "Mean intraocular pressure of both eyes", "setting": "[2]; [11]", "result": 7.94, "unit": "mmHg"},
      {"measurement": "Change of intraocular pressure", "setting": "[2]; [11]", "result": 1.81, "unit": "mmHg"},
      {"measurement": "Mean intraocular pressure of both eyes", "setting": "[2]; [12]", "result": 7.94, "unit": "mmHg"},
      {"measurement": "Change of intraocular pressure", "setting": "[2]; [12]", "result": 1.75, "unit": "mmHg"},
      {"measurement": "Mean intraocular pressure of both eyes", "setting": "[2]; [13]", "result": 7.89, "unit": "mmHg"},
      {"measurement": "Change of intraocular pressure", "setting": "[2]; [13]", "result": 1.64, "unit": "mmHg"},
      {"measurement": "Mean intraocular pressure of both eyes", "setting": "[2]; [14]", "result": 8.25, "unit": "mmHg"},
      {"measurement": "Change of intraocular pressure", "setting": "[2]; [14]", "result": 3.14, "unit": "mmHg"},
      {"measurement": "Mean intraocular pressure of both eyes", "setting": "[2]; [15]", "result": 8.50, "unit": "mmHg"},
      {"measurement": "Change of intraocular pressure", "setting": "[2]; [15]", "result": 2.47, "unit": "mmHg"},
      {"measurement": "Change of intraocular pressure", "setting": "[2]; 4 mg/mL, Day 1, 1 hour after administration", "result": 2.59, "unit": "mmHg"},
      {"measurement": "Change of intraocular pressure", "setting": "[2]; 4 mg/mL, Day 1, 2 hours after administration", "result": 1.97, "unit": "mmHg"},
      {"measurement": "Change of intraocular pressure", "setting": "[2]; 4 mg/mL, Day 1, 4 hours after administration", "result": 1.64, "unit": "mmHg"},
      {"measurement": "Change of intraocular pressure", "setting": "[2]; 4 mg/mL, Day 1, 6 hours after administration", "result": 1.38, "unit": "mmHg"},
      {"measurement": "Change of intraocular pressure", "setting": "[2]; 4 mg/mL, Day 1, 8 hours after administration", "result": 2.69, "unit": "mmHg"},
      {"measurement": "Change of intraocular pressure", "setting": "[2]; 4 mg/mL, Day 1, 10 hours after administration", "result": 1.61, "unit": "mmHg"},
      {"measurement": "Change of intraocular pressure", "setting": "[2]; 4 mg/mL, Day 1, before administration", "result": "−0.94", "unit": "mmHg"}
    ]}
  ]
}
